A melting point compilation (Tetko et al.; mined from patent text by program, amines drawn as free bases though some values may be those of a salt)

Molecule `CC(c1ccc(I)cc1)C(O)(Cn1cncn1)c1ccc(F)cc1F` (configuration not stated) has a melting point of 169 to 171 °C.
Molecule `CC(=O)Nc1nc(N)c2ncn(C3OC(C(O)C(=O)O)C(O)C3O)c2n1` (configuration not stated) has a melting point of 295 °C.
In the case of `COc1ccc(N2CCN(c3c(C)c(C)c4c(c3C)C(O)(c3ccc(N(C)C)cc3)C(C)(C)O4)CC2)cc1` (configuration not stated), the melting point is reported as 144 to 146 °C.
For `Cc1cc([N+](=O)[O-])ccc1NC(=O)n1nc(Oc2cccc(C(F)(F)F)c2)cc1C`, the melting point was 165 to 166 °C.
For `Cc1ccc2c([nH]c3c(C(=O)N4CCOCC4)cccc32)c1C`, the melting point was 183 °C.
With `N#CCCCCCCNc1ccc(O)cc1` the melting point was 75 to 76 °C.
`CC(C)(C)OC(=O)N1CCN(c2ccc([N+](=O)[O-])cc2)CC1` showed a melting point of 136 to 140 °C.
With `C#CCOc1ccc(C)cc1S(=O)(=O)NC(=O)Nc1nc(Cl)cc(OC)n1` the melting point was 202 to 204 °C.
`CC(=O)Nc1cccc(-c2cc3nc(-c4cccnc4N)n(-c4cccc(-c5cc(C)nc6ccc(NC(C)=O)cc56)c4)c3nc2-c2cccnc2)c1` showed a melting point of 176 to 178 °C.
`CCOC(=O)C1=C(C)Nc2snc(CCCOCc3ccccc3)c2C1c1cccc([N+](=O)[O-])c1` (configuration not stated) showed a melting point of 109 to 110 °C.
For `COc1ccc(C2=NN(c3ccc(C(=O)O)cc3)C(=O)[C@H]3CC=CC[C@@H]23)cc1Cl` (relative stereo), the melting point was 222 to 224 °C.
Molecule `CC(=O)Oc1ccc(C(=O)O)c(C)c1` has a melting point of 136 to 138 °C.
For `CCOCc1nc2c(cc(C)n3nnnc23)n1CC(C)C`, the melting point was 158 to 160 °C.
`CC(C)c1cnn2c(NCc3ccccc3)nc(Cl)cc12` gave a melting point of 74 to 75 °C.
With `COc1cccc2c1CC(COS(=O)(=O)c1ccc(C)cc1)CC2` (configuration not stated) the melting point was 53 to 58 °C.
`CCCn1nc(-c2ccc(O)c(F)c2)c2cccc(Cl)c21` showed a melting point of 134 to 135 °C.
Work on `CN(c1cccc2cc(C3=NCC(C)(CCOS(C)(=O)=O)S3)[nH]c12)S(=O)(=O)c1cccs1` (configuration not stated) yielded a melting point of 149 to 150 °C.
With `CCOCc1nc2c(N)nc3cc(-c4ccccc4)ccc3c2n1CC(C)(C)NS(C)(=O)=O` the melting point was 239 to 242 °C.
In the case of `CS(=O)(=O)c1ccc(-c2cc(C(=O)c3ccc(Cl)cc3)sc2N2CCOCC2)cc1`, the melting point is reported as 169 °C.
Work on `Oc1ccc2c(-c3ccc(Cl)cc3)noc2c1` yielded a melting point of 203 °C.
`CC(=O)Nc1c(N(C)C)cnn(C)c1=O` gave a melting point of 123 to 124 °C.
With `O=c1c(Br)cc2cnc(Nc3ccccn3)nc2n1C1CCCC1` the melting point was 273 to 275 °C.
For `Nc1ccc(C#Cc2ccccc2)c(-c2cc(N)ccc2C#Cc2ccccc2)c1`, the melting point was 159 to 161 °C.
Work on `CCOC(=O)c1cn(CC)c2cc(-c3csc(CN(CCOC(C)=O)C(C)=O)n3)c(F)cc2c1=O` yielded a melting point of 148 to 152 °C.
`COC(=O)Oc1sc(-c2ccc(F)cc2)nc(=O)c1-c1c(C)cc(C)cc1C` gave a melting point of 129 to 131 °C.
Molecule `NC(=O)C1(Cl)CC2C3CC4C2C4C31` (configuration not stated) has a melting point of 124 to 126 °C.
With `NCC1Cc2cccc(-c3ccccc3C(F)(F)F)c2O1` (configuration not stated) the melting point was 109 to 111 °C.
Work on `COc1ccc2c(c1)CC(C(N)=O)N2C(C)=O` (configuration not stated) yielded a melting point of 196 to 197 °C.
With `CC12CC(CCF)C3C4CCC(=O)C=C4CCC3C1CCC2=O` (configuration not stated) the melting point was 85 °C.
`CCCCCCCC1CCC(CC(C#N)c2ccc(Br)cc2)CC1` (configuration not stated) showed a melting point of 56 to 57 °C.
`C=CCN1Cc2nc3c(cnn3CCCC#CC)c(N)c2C1=O` showed a melting point of 138 to 140 °C.
Work on `CCOC(=O)c1cnc(Nc2ccccc2OC)[nH]c1=O` yielded a melting point of 217 to 219 °C.
For `CC1(C)CCSc2c(CC#Cc3ccc(C=O)cc3)cccc21`, the melting point was 55 to 63 °C.
With `Clc1ccc(-c2[nH]nc(N3CCNCC3)c2-c2ccncc2)cc1` the melting point was 264 to 265 °C.
Molecule `CCn1ncc2c1ncc1c(N3CCN(C)CC3)nc3cc(C)nn3c12` has a melting point of 167 to 169 °C.
Work on `COC(=O)c1ccc(N2CCN(S(C)(=O)=O)CC2)nc1` yielded a melting point of 205 to 207 °C.
With `COCCNC(=O)c1ccc(C(=O)N2CCN(c3ncccc3NC(C)C)CC2)nc1` the melting point was 122 to 124 °C.
With `N#CCOC(=O)c1cccnc1SCC#N` the melting point was 140 to 143 °C.
`CCOc1cc(C)cc2cc(C#N)c(=O)oc12` showed a melting point of 173 °C.
In the case of `CC(=O)Nc1cc(C(=O)c2ccc(S(=O)(=O)CCO)c(NC(C)=O)c2)ccc1S(=O)(=O)CCO`, the melting point is reported as 189 to 192 °C.
Molecule `CC(C)OCCC(=O)C=P(c1ccccc1)(c1ccccc1)c1ccccc1` has a melting point of 66 to 70 °C.
Work on `COC1(c2cc(F)cc(Sc3ccc(C(C)ONC(N)=O)cc3)c2)CCOCC1` (configuration not stated) yielded a melting point of 84 to 85 °C.
In the case of `O=C(NCCCCCn1ccnc1)c1ccc(Cl)s1`, the melting point is reported as 123 to 125 °C.
`CCCCCCSc1nn2c(=O)cc(Cl)nc2s1` gave a melting point of 95 to 96 °C.
With `CC(C#CC1CC(Oc2ccc(F)cc2Cl)C1)N(O)C(N)=O` (single isomer, unassigned; (+)) the melting point was 160 °C.
With `CCOC(=O)c1[nH]cnc1Cc1ccccc1` the melting point was 149 °C.
`NS(=O)(=O)c1ccc(C2=C(c3ccc(F)cc3)CC3(CCC3)C2)cc1` gave a melting point of 118 to 119 °C.
In the case of `O=Cc1csc(Nc2ccc(F)cc2)n1`, the melting point is reported as 152 to 155 °C.
`O=C(O)c1cc(F)c(F)cc1NC1CC1` gave a melting point of 175 to 176 °C.
Molecule `O=C1CCc2c(ccc3cc(O)ccc23)O1` has a melting point of 189 to 199 °C.
With `O=C1O[C@@H](Cn2ccnn2)CN1c1ccc(-c2ccc(C3=NOC(CNCCc4ccncc4)C3)nc2)c(F)c1` (some centres not stated) the melting point was 181 °C.
For `CC(C)N(C[C@H](O)COc1ccc(OCc2ccccc2)cc1)S(C)(=O)=O`, the melting point was 96 to 97 °C.
With `CCOc1ccc(-c2ccc(O)c(C=O)c2)cc1` the melting point was 94 to 95 °C.
`CCCCCCCN(CCCCCSc1nc(-c2ccc(OC)cc2)c(-c2ccc(OC)cc2)[nH]1)c1nc2ccccc2[nH]1` showed a melting point of 78 to 80 °C.
`CCCCCCCCCSCCCN=C=O` showed a melting point of 86 to 88 °C.
Work on `O=C(O)c1ccc(-c2ccc(C(F)(F)F)cc2)s1` yielded a melting point of 227 °C.
In the case of `CCCCCNC(=O)N(C)c1cccc(-c2ccc(C=C(OC)C(=O)O)cc2OCCOCC)c1`, the melting point is reported as 78.2 °C.
`O=C1c2ccccc2CN2C(=O)CCC12` (configuration not stated) showed a melting point of 105 to 107 °C.
`Nc1ccc(CN2CCN(c3ccccc3)CC2)cc1` showed a melting point of 105 °C.
`O=C1C=CC(=Nc2ccccc2C(=O)N2CCCCC2)C=C1` showed a melting point of 74 to 76 °C.
For `CCCCN(c1cccc(-c2ccnc3c([N+](=O)[O-])cnn23)c1)S(=O)(=O)c1ccccc1`, the melting point was 159 to 160 °C.
Work on `CCOC(=O)c1ccc(-c2cccc(-c3ccc4c(c3)C(C)(C)CCC4(C)C)c2OCOC)cc1` yielded a melting point of 75 °C.
With `CCCCN(C#N)C(=O)C(C)Oc1ccc(Oc2nc3ccc(Cl)cc3o2)cc1` (configuration not stated) the melting point was 91 to 92 °C.
With `C=CCOc1ccc2c(=O)c(C)c(-c3ccccc3)oc2c1C(=O)C=Cc1cccc(OC)c1` the melting point was 90 to 92 °C.
`Cn1ccnc1S(=O)(=O)c1ccc(Cl)cc1` gave a melting point of 164 to 166 °C.
In the case of `Cc1nc2cccc(OCC(C)(C)NC(=O)CN3CCOCC3)c2c(N)c1C(=O)O`, the melting point is reported as 173 to 175 °C.
`FC(F)(F)CNC(=S)NCC(F)(F)F` gave a melting point of 152 to 153 °C.
With `CC(C)Cc1nc2ccc(O)cc2c(-c2ccccc2F)c1C#N` the melting point was 256 to 257 °C.
With `Cc1cc(Br)cc2c(C(C)C)c[nH]c12` the melting point was 170 °C.
`CCC(NC(=S)NCc1ccc(C(C)(C)C)cc1)c1ccc(NS(C)(=O)=O)c(F)c1` (configuration not stated) gave a melting point of 85 °C.
For `CN(CCNC(=NCCCOc1cccc(CN2CCCCC2)c1)NC#N)CCN(Cc1ccc(F)cc1)c1ccccn1`, the melting point was 106 °C.
In the case of `O=[N+]([O-])c1ccc(F)cc1Nc1ccc(F)cc1`, the melting point is reported as 115 to 116 °C.
With `O=C(Nc1ccc(C2=CCN(C(=O)Nc3ccc(OCCO)cc3C(F)(F)F)CC2)cc1)Nc1ccccc1F` the melting point was 110 to 112 °C.
Work on `COc1ccc2c(C(C)C(=O)OC3CC(=O)NC3=O)cccc2c1` (configuration not stated) yielded a melting point of 126 °C.
For `CC(C)(COc1ccc(Cl)cc1)C(=O)COc1ccc(Cl)cc1`, the melting point was 76 to 77 °C.
Work on `CN(C)C1CCCN(C(=O)c2ccc(NC(=O)Cc3ccccc3Cl)cc2)c2ccccc21` (configuration not stated) yielded a melting point of 187 to 189 °C.
In the case of `COc1nccc(-c2ccc3cc(N(C)C)ccc3c2)c1C#N`, the melting point is reported as 150 to 151 °C.
For `C[C@H]1OC(=O)[C@@H](N)[C@@H]1C(=O)O`, the melting point was 196 to 200 °C.
`COc1cc2ncc(C#N)c(Nc3ccc(O)c(Cl)c3)c2cc1OC` gave a melting point of 230 to 232 °C.
Work on `O=[N+]([O-])c1cccc(-c2nnc(Nc3cccc(SCCCc4ccccc4)c3)s2)c1` yielded a melting point of 169 to 171 °C.
`CCC(C)C[C@@H]1O[C@H](CC(=O)Nc2cccc(OC(F)(F)C(=O)O)c2)C(=O)N(CC(C)(C)CO)c2ccc(Cl)cc21` (some centres not stated) showed a melting point of 119 to 121 °C.
With `O=Cc1cccc2oc3c(c12)CCCC3` the melting point was 55 to 57 °C.
For `Cc1ccc2nc(-c3ccc([N+](=O)[O-])cc3)cn2c1`, the melting point was 237 to 239 °C.
`Nc1c(Cl)cc(C(O)CNCCCCCCOCCCc2ccc([N+](=O)[O-])cn2)cc1Cl` (configuration not stated) gave a melting point of 60 to 61 °C.
Work on `C=CC=C1SC(=S)N(CC(=O)O)C1=O` yielded a melting point of 144 to 146 °C.
`CCCCN1CCN(CCCC)C2SC(=C3C(=O)CC(c4ccccc4)CC3=O)SC21` (configuration not stated) showed a melting point of 130 to 132 °C.
With `CC(=O)NC[C@H]1CN(c2ccc(N3CCC(n4nnc(N5CCN(C#N)CC5)n4)CC3)c(F)c2)C(=O)O1` the melting point was 208 to 210 °C.
`CC1(C(=O)c2c[nH]c3ncc(-c4cccc(N5CCN(S(N)(=O)=O)CC5)c4)nc23)CCCCC1` gave a melting point of 233 to 235 °C.
Work on `CN(Cc1ccccc1)C(=O)c1ccc2nonc2c1` yielded a melting point of 105 to 106 °C.
In the case of `CC(Oc1ncn(-c2cccc(Br)c2)n1)C(N)=O` (configuration not stated), the melting point is reported as 141 to 144 °C.
Work on `Cc1c(C)c2c(c(C)c1N)C(O)(c1ccc3ccccc3c1)C(C)(C)O2` (configuration not stated) yielded a melting point of 121 to 122 °C.
Molecule `CC1(C)OC(=C(C#N)C#N)C(C#N)=C1C=Cc1cc2c3c(c1)CCCN3CCC2` has a melting point of 243 °C.
`COc1ccc(C(=Nc2c(Cl)cncc2Cl)NCc2ccccc2)cc1OC1CCCC1` gave a melting point of 129 to 133 °C.
In the case of `NS(=O)(=O)c1cc2c(cc1Cl)C(=O)N(CCCN1CCOCC1)C2=O`, the melting point is reported as 190 to 191 °C.
With `COc1cccc(Sc2c3c(=O)n(C)c(=O)n(CC(C)C)c3cn2Cc2cccc3ccccc23)c1` the melting point was 130 to 133 °C.
Work on `CC(C)(C)c1cc(CS[C@@H]2CCCC[C@H]2SCc2cc(C(C)(C)C)cc(C(C)(C)C)c2O)c(O)c(C(C)(C)C)c1` (relative stereo) yielded a melting point of 104 to 106 °C.
`COc1ccc(Cl)cc1NC(=O)[C@H]1[C@H](c2ccc(S(N)(=O)=O)cc2)C12CCCCC2` (relative stereo) gave a melting point of 118 to 121 °C.
